Source: patent US12715896B2 (priority 2020, dated 2026)
Non-standard residues stand in square brackets, D forms with d. Residues, ends and D or L forms follow the SMILES beside them. *: point of attachment. Met(O2) = CS(=O)(=O)CC[C@H](N)C(=O)O; Cha = N[C@@H](CC1CCCCC1)C(=O)O; Tle = CC(C)(C)[C@H](N)C(=O)O; Nva = CCC[C@H](N)C(=O)O; Cbz = O=C(OCc1ccccc1)*; Boc = CC(C)(C)OC(=O)*

target: T1, SARS-CoV-2 M^pro (Severe acute respiratory syndrome coronavirus 2, UniProt P0DTD1); experiment: FRET-based enzymatic assay for SARS-CoV-2 main protease; format: biochemical; conditions: not given

Row | SMILES | IC50
1 | CCC[C@H](NC(=O)[C@H](CC(C)C)NC(=O)OCc1ccccc1)C(=O)C(=O)NC1CC1 [Jun8-18-2] | > 20000 nM
2 | CCC[C@H](NC(=O)[C@H](CC(C)C)NC(=O)[C@H](CC(C)C)NC(=O)OCc1ccccc1)C(=O)C(=O)NC1CC1 [Jun8-18-4] | 340 nM
3 | CCC[C@H](NC(=O)[C@H](CC(C)C)NC(=O)[C@@H](NC(=O)OCc1ccccc1)C(C)C)C(=O)C(=O)NC1CC1 [Jun8-29-2] | 480 nM
4 | CCC[C@H](NC(=O)[C@H](CC(C)C)NC(=O)[C@H](Cc1ccccc1)NC(=O)OCc1ccccc1)C(=O)C(=O)NC1CC1 [Jun8-29-4] | 480 nM
5 | CSCC[C@H](NC(=O)[C@H](CC(C)C)NC(=O)[C@H](CC(C)C)NC(=O)OCc1ccccc1)C(=O)C(=O)NC1CC1 [Jun8-43-3] | 2800 nM
6 | CSCC[C@@H](C=O)NC(=O)[C@H](CC(C)C)NC(=O)[C@H](CC(C)C)NC(=O)OCc1ccccc1 [Jun8-61-4] (Cbz-Leu-Leu-Met-aldehyde) | 110 nM
7 | CSCC[C@@H](C=O)NC(=O)[C@H](CC(C)C)NC(C)=O [Jun8-102-1] (Ac-Leu-Met-aldehyde) | 4770 nM
8 | CSCC[C@@H](C=O)NC(=O)[C@H](CC(C)C)NC(=O)OCc1ccccc1 [Jun8-102-2] (Cbz-Leu-Met-aldehyde) | 910 nM
9 | CSCC[C@@H](C=O)NC(=O)[C@H](CC(C)C)NC(=O)OC(C)(C)C [Jun9-2-3] (Boc-Leu-Met-aldehyde) | > 20000 nM
10 | CSCC[C@@H](C=O)NC(=O)[C@H](CC(C)C)NC(=O)[C@H](CC(C)C)NC(=O)OC(C)(C)C [Jun9-2-4] (Boc-Leu-Leu-Met-aldehyde) | 390 nM
11 | CSCC[C@@H](C=O)NC(=O)[C@H](CC(C)C)NC(=O)[C@H](Cc1ccccc1)NC(C)=O [Jun9-2-5] (Ac-Phe-Leu-Met-aldehyde) | 270 nM
12 | CSCC[C@H](NC(=O)[C@H](CC(C)C)NC(=O)[C@H](CC(C)C)NC(C)=O)C(=O)C(=O)NC1CC1 [Jun9-11-3] | 540 nM
13 | CSCC[C@H](NC(=O)[C@H](CC(C)C)NC(=O)[C@H](CC(C)C)NC(C)=O)C(=O)C(=O)NC(C)C [Jun9-11-4] | 5990 nM
14 | CSCC[C@H](NC(=O)[C@H](CC(C)C)NC(=O)[C@H](CC(C)C)NC(C)=O)C(=O)C(=O)NCc1ccccc1 [Jun9-11-5] | 1770 nM
15 | CC(C)C[C@H](NC(=O)CNC(=O)OCc1ccccc1)C(=O)N[C@@H](CC[S+](C)[O-])C(=O)C(=O)NC1CC1 (stereo partly drawn) [Jun9-24-1] | 510 nM
16 | CSCC[C@H](NC(=O)[C@H](CC(C)C)NC(=O)[C@H](Cc1ccccc1)NC(C)=O)C(=O)C(=O)NC1CC1 [Jun9-24-3] | 460 nM
17 | CC(=O)N[C@@H](Cc1ccccc1)C(=O)N[C@@H](CC(C)C)C(=O)N[C@@H](CC[S+](C)[O-])C(=O)C(=O)NC1CC1 (stereo partly drawn) [Jun9-24-4] | 290 nM
18 | CCC[C@H](NC(C)=O)C(=O)N[C@@H](CC(C)C)C(=O)N[C@@H](CCSC)C(=O)C(=O)NC1CC1 [Jun9-24-5] | 640 nM

Row | SMILES | IC50
19 | CSCC[C@H](NC(=O)[C@H](CC(C)C)NC(=O)CNC(=O)OCc1ccccc1)C(=O)C(=O)NC1CC1 [Jun9-47-4] | 1200 nM
20 | CCC[C@@H](C=O)NC(=O)[C@H](CC(C)C)NC(=O)[C@H](CC(C)C)NC(C)=O [Jun9-48-3] (Ac-Leu-Leu-[Nva]-aldehyde) | 38500 nM
21 | CCC[C@H](NC(=O)[C@H](CC(C)C)NC(=O)[C@H](CC(C)C)NC(C)=O)C(=O)C(=O)NC1CC1 [Jun9-49-1] | 5890 nM
22 | CCC[C@@H](C=O)NC(=O)[C@H](CC(C)C)NC(=O)CNC(=O)OCc1ccccc1 [Jun9-52-3] (Cbz-Gly-Leu-[Nva]-aldehyde) | > 20000 nM
23 | CCC[C@H](NC(=O)[C@H](CC(C)C)NC(=O)CNC(=O)OCc1ccccc1)C(=O)C(=O)NC1CC1 [Jun9-52-4] | 17700 nM
24 | CC(C)C[C@H](NC(=O)CNC(=O)OCc1ccccc1)C(=O)N[C@@H](CCS(C)(=O)=O)C(=O)C(=O)NC1CC1 [Jun9-56-2] | 130 nM
25 | CC(=O)N[C@@H](Cc1ccccc1)C(=O)N[C@@H](CC(C)C)C(=O)N[C@@H](CCS(C)(=O)=O)C(=O)C(=O)NC1CC1 [Jun9-56-3] | 140 nM
26 | CC(=O)N[C@@H](CC(C)C)C(=O)N[C@@H](CC(C)C)C(=O)N[C@H](C=O)CCS(C)(=O)=O [Jun9-58-1] (Ac-Leu-Leu-[Met(O2)]-aldehyde) | 490 nM
27 | CC(=O)N[C@@H](CC(C)C)C(=O)N[C@@H](CC(C)C)C(=O)N[C@@H](CC[S+](C)[O-])C(=O)C(=O)NC1CC1 (stereo partly drawn) [Jun9-59-2] | 360 nM
28 | CC(=O)N[C@@H](CC(C)C)C(=O)N[C@@H](CC(C)C)C(=O)N[C@@H](CCS(C)(=O)=O)C(=O)C(=O)NC1CC1 [Jun9-65-1] | 180 nM
29 | CSCC[C@@H](C=O)NC(=O)[C@H](CC1CCCCC1)NC(=O)[C@@H](NC(C)=O)C(C)(C)C [Jun9-66-1] (Ac-[Tle]-[Cha]-Met-aldehyde) | 320 nM
30 | CSCC[C@@H](C=O)NC(=O)[C@H](CC(C)C)NC(=O)[C@H](CC1CCCCC1)NC(C)=O [Jun9-66-2] (Ac-[Cha]-Leu-Met-aldehyde) | 290 nM
31 | CSCC[C@H](NC(=O)[C@H](CC1CCCCC1)NC(=O)[C@@H](NC(C)=O)C(C)(C)C)C(=O)C(=O)NC1CC1 [Jun9-66-3] | 1520 nM
32 | CSCC[C@H](NC(=O)[C@H](CC(C)C)NC(=O)[C@H](CC1CCCCC1)NC(C)=O)C(=O)C(=O)NC1CC1 [Jun9-66-4] | 220 nM
33 | CC(=O)N[C@@H](CC1CCCCC1)C(=O)N[C@@H](CC(C)C)C(=O)N[C@@H](CCS(C)(=O)=O)C(=O)C(=O)NC1CC1 [Jun9-82-2] | 100 nM
34 | CC(=O)N[C@@H](CC1CCCCC1)C(=O)N[C@@H](CC(C)C)C(=O)N[C@@H](CC[S+](C)[O-])C(=O)C(=O)NC1CC1 (stereo partly drawn) [Jun9-87-4] | 270 nM
35 | CC(C)[C@H](NC(=O)OCc1ccccc1)C(=O)N[C@H](C=O)Cc1ccccc1 [calpain inhibitor III (MDL28170) (57), calpain inhibitor III] (Cbz-Val-Phe-aldehyde) | > 20000 nM

same assay, conditions: read-out: inhibition against M^pro in primary screening

Row | SMILES | inhibition at 20 µM
36 | CC(C)(C)NC(=O)N[C@H](C(=O)N1C[C@H]2[C@@H]([C@H]1C(=O)NC(CC1CCC1)C(=O)C(N)=O)C2(C)C)C(C)(C)C (stereo partly drawn) [Boceprevir (28), Boceprevir] | > 60%
37 | CC(C)C[C@@H](C=O)NC(=O)[C@H](CC(C)C)NC(=O)[C@H](CC(C)C)NC(=O)OCc1ccccc1 [MG-132 (43), MG-132] (Cbz-Leu-Leu-Leu-aldehyde) | > 60%
38 | CCCC[C@H](NC(=O)[C@@H]1[C@@H]2[C@H](CN1C(=O)[C@@H](NC(=O)NC1(CS(=O)(=O)C(C)(C)C)CCCCC1)C(C)(C)C)C2(C)C)C(=O)C(=O)NC1CC1 [Narlaprevir (29), Narlaprevir] | > 60%
39 | COc1ccc2c(O[C@@H]3CC4C(=O)N[C@]5(C(=O)NS(=O)(=O)C6CC6)C[C@@H]5/C=C\CCCCN(C)C(=O)C4C3)cc(-c3nc(C(C)C)cs3)nc2c1C (stereo partly drawn) [Simeprevir (24), Simeprevir] | > 60%

target: T1, SARS-CoV-2 M^pro; experiment: not given; format: binding; conditions: melting temperature with compound; DMSO 55.74; 30 μM compound

Row | SMILES | 2019-nCoV 3CL TSA Tm
40 | CC(C)(C)NC(=O)N[C@H](C(=O)N1C[C@H]2[C@@H]([C@H]1C(=O)NC(CC1CCC1)C(=O)C(N)=O)C2(C)C)C(C)(C)C (stereo partly drawn) [Boceprevir (28), Boceprevir] | 62.41 ± 0.21/6.67 °C
41 | CSCC[C@@H](C=O)NC(=O)[C@H](CC(C)C)NC(=O)[C@H](CC(C)C)NC(C)=O [Calpain inhibitor II (61), Calpain inhibitor II] (Ac-Leu-Leu-Met-aldehyde) | 62.93 ± 0.14 °C
42 | CC(C)C[C@@H](C=O)NC(=O)[C@@H](NS(=O)(=O)c1ccc(F)cc1)C(C)C [Calpain inhibitor VI (58), Calpain inhibitor VI] | 55.46 ± 0.14 °C
43 | CCCC[C@@H](C=O)NC(=O)[C@H](CC(C)C)NC(=O)OCc1ccccc1 [Calpeptin (56), Calpeptin] | 56.84 ± 0.00 °C
44 | CCC[C@@H](C=O)NC(=O)[C@H](CC(C)C)NC(=O)[C@H](CC(C)C)NC(=O)OCc1ccccc1 [MG-115 (60), MG-115] (Cbz-Leu-Leu-[Nva]-aldehyde) | 60.51 ± 0.28 °C
45 | CCCC[C@H](NC(=O)[C@@H]1[C@@H]2[C@H](CN1C(=O)[C@@H](NC(=O)NC1(CS(=O)(=O)C(C)(C)C)CCCCC1)C(C)(C)C)C2(C)C)C(=O)C(=O)NC1CC1 [Narlaprevir (29), Narlaprevir] | 60.92 ± 0.14/5.18 °C
46 | CC(C)[C@H](NC(=O)OCc1ccccc1)C(=O)N[C@H](C=O)Cc1ccccc1 [calpain inhibitor III (MDL28170) (57), calpain inhibitor III] (Cbz-Val-Phe-aldehyde) | 55.36 ± 0.14 °C

same assay, conditions: shift vs DMSO; 30 μM compound

Row | SMILES | 2019-nCoV 3CL TSA ΔTm
47 | CSCC[C@@H](C=O)NC(=O)[C@H](CC(C)C)NC(=O)[C@H](CC(C)C)NC(C)=O [Calpain inhibitor II (61), Calpain inhibitor II] (Ac-Leu-Leu-Met-aldehyde) | 6.65 °C
48 | CC(C)C[C@@H](C=O)NC(=O)[C@@H](NS(=O)(=O)c1ccc(F)cc1)C(C)C [Calpain inhibitor VI (58), Calpain inhibitor VI] | −0.28 °C
49 | CCCC[C@@H](C=O)NC(=O)[C@H](CC(C)C)NC(=O)OCc1ccccc1 [Calpeptin (56), Calpeptin] | 1.1 °C
50 | CCC[C@@H](C=O)NC(=O)[C@H](CC(C)C)NC(=O)[C@H](CC(C)C)NC(=O)OCc1ccccc1 [MG-115 (60), MG-115] (Cbz-Leu-Leu-[Nva]-aldehyde) | 4.77 °C
51 | CC(C)[C@H](NC(=O)OCc1ccccc1)C(=O)N[C@H](C=O)Cc1ccccc1 [calpain inhibitor III (MDL28170) (57), calpain inhibitor III] (Cbz-Val-Phe-aldehyde) | −0.38 °C
